Patent US11572590B2, “Methods for evaluating tumor cell spheroids using 3D microfluidic cell culture device” (Dana-Farber Cancer Institute, Inc., priority 2017, dated 2023)
Read-outs that look alike come from different tables or passages of the source.

How the values were obtained:
Assay in all cases: SelectScreen Kinase Profiling, single point inhibition and IC50 for off-target kinases
Type in all cases: biochemical
off-target kinases [1] = molecular target: T1, off-target kinases (Homo sapiens, UniProt Q8IVH8); conditions: MAP4K3 (GLK), LanthaScreen Binding
T1 sequence (Q8IVH8 1-894): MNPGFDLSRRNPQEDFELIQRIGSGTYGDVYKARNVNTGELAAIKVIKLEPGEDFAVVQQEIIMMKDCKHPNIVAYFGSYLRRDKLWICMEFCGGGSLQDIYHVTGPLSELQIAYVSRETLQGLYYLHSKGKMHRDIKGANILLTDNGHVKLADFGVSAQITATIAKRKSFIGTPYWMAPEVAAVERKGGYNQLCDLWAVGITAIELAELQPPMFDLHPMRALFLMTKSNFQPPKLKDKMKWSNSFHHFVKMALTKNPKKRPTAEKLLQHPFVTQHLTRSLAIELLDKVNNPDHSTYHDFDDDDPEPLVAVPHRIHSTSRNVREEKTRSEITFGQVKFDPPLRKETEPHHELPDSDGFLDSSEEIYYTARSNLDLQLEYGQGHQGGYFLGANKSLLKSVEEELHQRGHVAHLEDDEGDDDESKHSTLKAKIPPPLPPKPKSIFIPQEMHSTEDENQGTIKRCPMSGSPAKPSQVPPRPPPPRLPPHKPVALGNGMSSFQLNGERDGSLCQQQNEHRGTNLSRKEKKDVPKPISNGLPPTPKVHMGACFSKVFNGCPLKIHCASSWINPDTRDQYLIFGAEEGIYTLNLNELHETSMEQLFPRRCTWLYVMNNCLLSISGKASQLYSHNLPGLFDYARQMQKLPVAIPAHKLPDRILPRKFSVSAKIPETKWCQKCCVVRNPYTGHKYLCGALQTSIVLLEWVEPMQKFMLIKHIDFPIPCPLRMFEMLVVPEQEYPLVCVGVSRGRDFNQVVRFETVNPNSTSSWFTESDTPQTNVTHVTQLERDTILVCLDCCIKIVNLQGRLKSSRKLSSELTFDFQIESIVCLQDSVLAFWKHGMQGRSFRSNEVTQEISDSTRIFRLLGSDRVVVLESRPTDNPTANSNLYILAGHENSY

off-target kinases [2] = molecular target: off-target kinases (Homo sapiens, UniProt P06241)
Chain of off-target kinases (Homo sapiens, UniProt P06241) (P06241 whole entry): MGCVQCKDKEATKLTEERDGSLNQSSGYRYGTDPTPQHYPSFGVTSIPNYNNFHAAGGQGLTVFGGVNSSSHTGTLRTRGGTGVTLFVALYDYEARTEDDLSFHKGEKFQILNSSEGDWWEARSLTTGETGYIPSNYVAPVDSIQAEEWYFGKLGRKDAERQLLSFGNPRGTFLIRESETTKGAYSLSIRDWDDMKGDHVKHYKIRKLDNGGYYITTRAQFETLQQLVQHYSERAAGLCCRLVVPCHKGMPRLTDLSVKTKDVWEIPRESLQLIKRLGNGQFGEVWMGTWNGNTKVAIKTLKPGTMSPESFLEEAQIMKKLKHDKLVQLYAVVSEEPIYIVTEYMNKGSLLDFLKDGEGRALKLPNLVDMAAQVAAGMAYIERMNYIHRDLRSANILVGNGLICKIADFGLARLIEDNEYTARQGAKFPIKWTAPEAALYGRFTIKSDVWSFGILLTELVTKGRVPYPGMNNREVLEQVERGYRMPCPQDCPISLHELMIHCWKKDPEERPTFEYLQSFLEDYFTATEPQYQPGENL

off-target kinases [3] = molecular target: T2, off-target kinases (Homo sapiens, UniProt Q9UEE5); conditions: STK17A (DRAK1), LanthaScreen Binding
T2 sequence (Q9UEE5 1-414): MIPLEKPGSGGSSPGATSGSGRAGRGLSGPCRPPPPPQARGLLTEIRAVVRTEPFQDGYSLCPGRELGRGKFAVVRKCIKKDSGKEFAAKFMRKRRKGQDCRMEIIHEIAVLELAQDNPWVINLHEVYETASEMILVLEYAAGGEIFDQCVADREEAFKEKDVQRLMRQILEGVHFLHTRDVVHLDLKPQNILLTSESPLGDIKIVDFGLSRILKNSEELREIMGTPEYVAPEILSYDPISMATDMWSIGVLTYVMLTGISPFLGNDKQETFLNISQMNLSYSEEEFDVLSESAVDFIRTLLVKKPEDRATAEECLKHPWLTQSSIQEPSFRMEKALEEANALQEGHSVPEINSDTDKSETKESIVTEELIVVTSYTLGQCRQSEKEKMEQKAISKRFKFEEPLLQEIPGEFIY

off-target kinases [4] = molecular target: off-target kinases (Homo sapiens, UniProt P50750)
Chain of off-target kinases (Homo sapiens, UniProt P50750) (P50750 whole entry): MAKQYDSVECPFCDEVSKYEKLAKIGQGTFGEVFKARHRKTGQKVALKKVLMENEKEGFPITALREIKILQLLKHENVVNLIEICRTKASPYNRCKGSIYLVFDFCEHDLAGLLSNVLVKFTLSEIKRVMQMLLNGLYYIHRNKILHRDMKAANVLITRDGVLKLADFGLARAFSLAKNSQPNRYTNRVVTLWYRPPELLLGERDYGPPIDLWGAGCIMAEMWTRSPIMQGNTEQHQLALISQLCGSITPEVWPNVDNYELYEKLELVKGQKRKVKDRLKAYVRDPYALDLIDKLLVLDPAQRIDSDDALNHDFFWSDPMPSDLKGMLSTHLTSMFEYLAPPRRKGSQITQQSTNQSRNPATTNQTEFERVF

## N#Cc1cc(-c2ncnc(Nc3ccc(N4CCN(C5COC5)CC4)cc3)n2)ccc1OC1CCOCC1 [Compound 1, 5-(4-((4-(4-(oxetan-3-yl)piperazin-1-yl)phenyl)amino)-1,3,5-triazin-2-yl)-2-((tetrahydro-2H-pyran-4-yl)oxy)benzonitrile]
off-target kinases [1]; read-out: % Inhibition 1
  inhibition: 16%
off-target kinases [1]; read-out: % Inhibition 2
  inhibition: 21%
off-target kinases [1]; read-out: % Inhibition Avg
  inhibition: 18%
off-target kinases [2]; FYN A, LanthaScreen Binding, read-out: % Inhibition Avg
  inhibition: 18%
off-target kinases [2]; FYN, ATP Km app, ZLYTE, read-out: % Inhibition 1
  inhibition: 85%
off-target kinases [2]; FYN, ATP Km app, ZLYTE, read-out: % Inhibition 2
  inhibition: 85%
off-target kinases [2]; FYN, ATP Km app, ZLYTE, read-out: % Inhibition Avg
  inhibition: 85%
off-target kinases [3]; read-out: % Inhibition 1
  inhibition: 101%
off-target kinases [3]; read-out: % Inhibition 2
  inhibition: 101%
off-target kinases [3]; read-out: % Inhibition Avg
  inhibition: 101%
off-target kinases [4]; CDK9 (Inactive), LanthaScreen Binding, read-out: % Inhibition 1
  inhibition: 8%
off-target kinases [4]; CDK9 (Inactive), LanthaScreen Binding, read-out: % Inhibition 2
  inhibition: 13%
off-target kinases [4]; CDK9 (Inactive), LanthaScreen Binding, read-out: % Inhibition Avg
  inhibition: 10%
off-target kinases [4]; CDK9/cyclin K, LanthaScreen Binding, read-out: % Inhibition 1
  inhibition: 11%
off-target kinases [4]; CDK9/cyclin K, LanthaScreen Binding, read-out: % Inhibition 2
  inhibition: 9%
off-target kinases [4]; CDK9/cyclin K, LanthaScreen Binding, read-out: % Inhibition Avg
  inhibition: 10%
off-target kinases [4]; CDK9/cyclin T1, Adapta, ATP Km app, read-out: % Inhibition 1
  inhibition: 18%
off-target kinases [4]; CDK9/cyclin T1, Adapta, ATP Km app, read-out: % Inhibition 2
  inhibition: 22%
off-target kinases [4]; CDK9/cyclin T1, Adapta, ATP Km app, read-out: % Inhibition Avg
  inhibition: 20%
